These results are taken from patent US10835572B2, “Composition for external application” (ROHTO PHARMACEUTICAL CO., LTD., priority 2014, dated 2020).

A short description of this data set: Discoloration on storage: rate of increase in ΔE*ab (color difference meter). It counts as physicochemical. The following applies: stored 4 days at 60° C. under protection from light; FIG. 4-8. On the procedure:
20 ml aliquots of the compositions of the examples and comparative examples were filled into a glass bottle followed by determination of the initial ΔE*ab(0) value with a color difference meter (Spectrophotometer Model CM-5, Konica Minolta). At this time, purified water was used for the reference color. ΔE*ab(0) values are represented by the equation indicated below and used as an indicator to represent the degree of coloring of the compositions of the examples and comparative examples. ΔE*ab={(ΔL*)^2+(Δa*)^2+(Δb*)^2}^1/2 [Equation 1]
The L* value (ΔL*) is a value relating to lightness, the a* value (Δa*) is a value relating to red/green opponent colors in both directions, and the b* value (Δb*) is a value relating to blue/yellow opponent colors in both directions. The compositions of the aforementioned examples and comparative examples were each stored (under protection from light) at 40° C., 50° C. and 60° C. and then taken out after 4 days followed by determination of the ΔE*ab(4) value with the aforementioned color difference meter.
The rate of increase in the ΔE*ab values attributable to being stored for 4 days at the aforementioned temperatures was determined using the equation indicated below. The term “(D65)” in the equation indicates the use of Illuminant D65. Rate of increase in ΔE*ab(D65)=ΔE*ab(65)(4)/[…]

With `O=C1O[C@H]([C@@H](O)CO)C(O)=C1O[C@H]1O[C@H](CO)[C@@H](O)[C@H](O)[C@H]1O` [ascorbyl glucoside], the “discoloration, rate of increase in ΔE*ab (in words)” value is “discoloration was determined to not occur”.
